Assay results published in patent publication US20250339409A1, “USES OF PAN BET INHIBITORS” (VYNE THERAPEUTICS INC., priority 2021, published 2025).
Where “and” joins values, the source holds several entries; their conditions need not be identical. Equal values may be shown once. Marks after values point to notes of the source that are not given here.

Tested on: anti collagen antibodies induced arthritis (ACAIA)
Assay: Anti collagen antibodies induced arthritis (ACAIA) in mice, intra-articular treatment: paw thickness, arthritis clinical score, body weight;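 note: mouse arthritis induced by IV anti-collagen mAb on day 0 plus IP LPS on day 4, with body weight, caliper paw thickness and 0-4 paw score tracked against a day 0 baseline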
Settings: for Clinical score of treated leg (Avg.) / Paw thickness Avg. Delta untreated -treated / Paw thickness of treated leg (Avg.) / Paw thickness of untreated leg (Avg.) / Percent change of weight per day (Av) / Percent change of weight per day (individual animal) / Δ clinical score untreated -treated, Avg. Delta: 10 mg/kg IA (Group 2)
[1] = BETi1 0.01 mg/kg IA (Group 5), Av
[2] = BETi1 0.01 mg/kg IA (Group 5), individual animals, 0.01 mg/kg
[3] = BETi1 0.1 mg/kg IA (Group 4), Av

**Q.** Which “Clinical score of treated leg (Avg.)” value (Baseline) does the source give for `Cn1cc(-c2cccc(O)c2Oc2ccccc2)c2cc[nH]c2c1=O` [BETi1] here?
**A.** Its value is 0.00 points.

**Q.** What about the “Paw thickness Avg. Delta untreated -treated” value (Baseline) of the same molecule?
**A.** Its value is −0.05 mm.

**Q.** And the “Paw thickness of treated leg (Avg.)” value (Baseline)?
**A.** The value was 2.12 mm.

**Q.** And the “Paw thickness of untreated leg (Avg.)” value (Baseline)?
**A.** The value was 2.07 mm.

**Q.** What about the “Percent change of weight per day (Av)” value (Baseline) of the same molecule?
**A.** Its value is 100.00%.

**Q.** And the “Percent change of weight per day (individual animal)” value (Baseline)?
**A.** The value was 100%.

**Q.** What about the “Δ clinical score untreated -treated, Avg. Delta” value (Baseline) of the same molecule?
**A.** Its value is 0.00 points.

**Q.** What about the “Clinical score of treated leg (Avg.)” value (Day 3) of the same molecule?
**A.** The value was 0.00 points.

**Q.** And the “Paw thickness Avg. Delta untreated -treated” value (Day 3)?
**A.** The value was −0.01 mm.

**Q.** What about the “Paw thickness of treated leg (Avg.)” value (Day 3) of the same molecule?
**A.** Its value is 2.16 mm.

**Q.** And the “Paw thickness of untreated leg (Avg.)” value (Day 3)?
**A.** Its value is 2.15 mm.

**Q.** And the “Percent change of weight per day (Av)” value (Day 3)?
**A.** Its value is 100.21%.

**Q.** And the “Percent change of weight per day (individual animal)” value (Day 3)?
**A.** Its value is 99.5% and 99.54% and 102.4038% and 101.3825% and 100.4673% and 98.1982% and 100%.

**Q.** And the “Δ clinical score untreated -treated, Avg. Delta” value (Day 3)?
**A.** The value was 0.00 points.

**Q.** And the “Clinical score of treated leg (Avg.)” value (Day 4)?
**A.** Its value is 0.00 points.

**Q.** And the “Paw thickness Avg. Delta untreated -treated” value (Day 4)?
**A.** Its value is −0.04 mm.

**Q.** What about the “Paw thickness of treated leg (Avg.)” value (Day 4) of the same molecule?
**A.** The value was 2.24 mm.

**Q.** And the “Paw thickness of untreated leg (Avg.)” value (Day 4)?
**A.** The value was 2.20 mm.

**Q.** What about the “Percent change of weight per day (Av)” value (Day 4) of the same molecule?
**A.** The value was 100.95%.

**Q.** And the “Percent change of weight per day (individual animal)” value (Day 4)?
**A.** Its value is 100% and 99.07% and 102.8846% and 103.2258% and 100.9346% and 98.65% and 101.8779%.

**Q.** What about the “Δ clinical score untreated -treated, Avg. Delta” value (Day 4) of the same molecule?
**A.** The value was 0.00 points.

**Q.** What about the “Clinical score of treated leg (Avg.)” value (Day 5) of the same molecule?
**A.** Its value is 0.00 points.

**Q.** And the “Paw thickness Avg. Delta untreated -treated” value (Day 5)?
**A.** The value was 0.01 mm.

**Q.** What about the “Paw thickness of treated leg (Avg.)” value (Day 5) of the same molecule?
**A.** Its value is 2.16 mm.

**Q.** What about the “Paw thickness of untreated leg (Avg.)” value (Day 5) of the same molecule?
**A.** Its value is 2.17 mm.

**Q.** And the “Percent change of weight per day (Av)” value (Day 5)?
**A.** Its value is 92.17%.

**Q.** And the “Percent change of weight per day (individual animal)” value (Day 5)?
**A.** The value was 91.58% and 93.06% and 92.79% and 94.86% and 89.64% and 91.08%.

**Q.** What about the “Δ clinical score untreated -treated, Avg. Delta” value (Day 5) of the same molecule?
**A.** Its value is 0.00 points.

**Q.** And the “Clinical score of treated leg (Avg.)” value (Day 6)?
**A.** Its value is 0.00* points.

**Q.** What about the “Paw thickness Avg. Delta untreated -treated” value (Day 6) of the same molecule?
**A.** The value was 0.34*** mm.

**Q.** And the “Paw thickness of treated leg (Avg.)” value (Day 6)?
**A.** The value was 2.17*** mm.

**Q.** What about the “Paw thickness of untreated leg (Avg.)” value (Day 6) of the same molecule?
**A.** Its value is 2.51 mm.

**Q.** And the “Percent change of weight per day (Av)” value (Day 6)?
**A.** Its value is 92.02%.

**Q.** And the “Percent change of weight per day (individual animal)” value (Day 6)?
**A.** Its value is 93.56% and 91.67% and 92.31% and 91.1215% and 91.89% and 91.5493%.

**Q.** And the “Clinical score of treated leg (Avg.)” value (Day 7)?
**A.** Its value is 0.50* points.

**Q.** What about the “Paw thickness Avg. Delta untreated -treated” value (Day 7) of the same molecule?
**A.** The value was 0.77*** mm.

**Q.** And the “Paw thickness of treated leg (Avg.)” value (Day 7)?
**A.** Its value is 2.23** mm.

**Q.** What about the “Paw thickness of untreated leg (Avg.)” value (Day 7) of the same molecule?
**A.** The value was 3.00 mm.

**Q.** And the “Percent change of weight per day (Av)” value (Day 7)?
**A.** Its value is 91.86%.

**Q.** What about the “Percent change of weight per day (individual animal)” value (Day 7) of the same molecule?
**A.** Its value is 92.57% and 89.81% and 93.75% and 91.59% and 91.44% and 92.02%.

**Q.** And the “Clinical score of treated leg (Avg.)” value (Day 8)?
**A.** Its value is 0.83 points.

**Q.** And the “Paw thickness Avg. Delta untreated -treated” value (Day 8)?
**A.** Its value is 1.04*** mm.

**Q.** And the “Paw thickness of treated leg (Avg.)” value (Day 8)?
**A.** The value was 2.18** mm.

**Q.** What about the “Paw thickness of untreated leg (Avg.)” value (Day 8) of the same molecule?
**A.** Its value is 3.22 mm.

**Q.** What about the “Percent change of weight per day (Av)” value (Day 8) of the same molecule?
**A.** The value was 90.62%.

**Q.** What about the “Percent change of weight per day (individual animal)” value (Day 8) of the same molecule?
**A.** The value was 92.08% and 88.89% and 94.23% and 87.85% and 90.99% and 89.67%.

**Q.** What about the “Clinical score of treated leg (Avg.)” value (Day 10) of the same molecule?
**A.** The value was 0.17* points.

**Q.** And the “Paw thickness Avg. Delta untreated -treated” value (Day 10)?
**A.** Its value is 1.27 mm.

**Q.** And the “Paw thickness of treated leg (Avg.)” value (Day 10)?
**A.** The value was 2.14** mm.

**Q.** What about the “Paw thickness of untreated leg (Avg.)” value (Day 10) of the same molecule?
**A.** Its value is 3.41 mm.

**Q.** And the “Percent change of weight per day (Av)” value (Day 10)?
**A.** Its value is 91.54%.

**Q.** What about the “Percent change of weight per day (individual animal)” value (Day 10) of the same molecule?
**A.** Its value is 90.59% and 88.89% and 95.19% and 91.59% and 92.34% and 90.61%.

**Q.** And the “Clinical score of treated leg (Avg.)” value (Day 12)?
**A.** Its value is 0.67 points.

**Q.** And the “Paw thickness Avg. Delta untreated -treated” value (Day 12)?
**A.** Its value is 1.32 mm.

**Q.** And the “Paw thickness of treated leg (Avg.)” value (Day 12)?
**A.** The value was 2.17 mm.

**Q.** And the “Paw thickness of untreated leg (Avg.)” value (Day 12)?
**A.** Its value is 3.48 mm.

**Q.** What about the “Percent change of weight per day (Av)” value (Day 12) of the same molecule?
**A.** The value was 94.92%.

**Q.** And the “Percent change of weight per day (individual animal)” value (Day 12)?
**A.** The value was 95.54% and 93.98% and 98.08% and 92.99% and 95.05% and 93.9%.

**Q.** What about the “Δ clinical score untreated -treated, Avg. Delta” value (Day 12) of the same molecule?
**A.** Its value is 2.67 points.

**Q.** And the “Δ clinical score untreated -treated, Avg. Delta” value (Day 6, * p < 0.05 vs. Vehicle)?
**A.** Its value is 0.83* points.

**Q.** What about the “Δ clinical score untreated -treated, Avg. Delta” value (Day 7, * p < 0.05 vs. Vehicle) of the same molecule?
**A.** Its value is 1.33* points.

**Q.** What about the “Δ clinical score untreated -treated, Avg. Delta” value (Day 8, * p < 0.05 vs. Vehicle) of the same molecule?
**A.** Its value is 2.17* points.

**Q.** And the “Δ clinical score untreated -treated, Avg. Delta” value (Day 10, * p < 0.05 vs. Vehicle)?
**A.** The value was 2.83* points.

**Q.** And the “reduction of arthritis score, treated vs untreated paw” value (10 mg/kg IA, day 12)?
**A.** The value was 79.9%.

**Q.** And the “reduction of paw thickness, treated vs untreated paw” value (10 mg/kg IA, day 12)?
**A.** The value was 37.6%.

**Q.** What about the Weight per day, Baseline [1] of the same molecule?
**A.** Its Weight per day, Baseline is 20.6 g.

**Q.** What about the Weight per day, Day 3 [1] of the same molecule?
**A.** Its Weight per day, Day 3 is 20.4 g.

**Q.** And the Weight per day, Day 4 [1]?
**A.** The Weight per day, Day 4 was 19.9 g.

**Q.** What about the Weight per day, Day 5 [1] of the same molecule?
**A.** The Weight per day, Day 5 was 18.5 g.

**Q.** What about the Weight per day, Day 6 [1] of the same molecule?
**A.** The Weight per day, Day 6 was 18.1 g.

**Q.** What about the Weight per day, Day 7 [1] of the same molecule?
**A.** Its Weight per day, Day 7 is 18.9 g.

**Q.** What about the Weight per day, Day 8 [1] of the same molecule?
**A.** Its Weight per day, Day 8 is 18.5 g.

**Q.** And the Weight per day, Day 10 [1]?
**A.** The Weight per day, Day 10 was 18.4 g.

**Q.** And the Weight per day, Day 12 [1]?
**A.** Its Weight per day, Day 12 is 19.1 g.

**Q.** What about the Weight per day, Baseline [2] of the same molecule?
**A.** Its Weight per day, Baseline is 21 g (2×) and 20.9 g and 21.5 g and 21.4 g and 19.4 g and 18.7 g.

**Q.** What about the Weight per day, Day 3 [2] of the same molecule?
**A.** The Weight per day, Day 3 was 20.8 g and 20.6 g and 21.6 g and 20.9 g and 19.3 g and 18.8 g and 21 g.

**Q.** And the Weight per day, Day 4 [2]?
**A.** The Weight per day, Day 4 was 21.1 g and 20.8 g and 20.9 g and 21.6 g and 17.4 g and 17.8 g and 19.6 g.

**Q.** And the Weight per day, Day 5 [2]?
**A.** Its Weight per day, Day 5 is 19.5 g and 18.7 g and 19.1 g and 20.2 g and 16.6 g and 16.8 g and 18.4 g.

**Q.** What about the Weight per day, Day 6 [2] of the same molecule?
**A.** The Weight per day, Day 6 was 19.1 g and 19 g and 18.6 g and 19.9 g and 15.6 g and 16.5 g and 18.1 g.

**Q.** What about the Weight per day, Day 7 [2] of the same molecule?
**A.** Its Weight per day, Day 7 is 19.4 g and 19.3 g and 18.9 g and 20 g and 16 g and 19.9 g and 18.5 g.

**Q.** And the Weight per day, Day 8 [2]?
**A.** The Weight per day, Day 8 was 19.3 g and 19.7 g and 18.9 g and 20.1 g and 16 g and 16.9 g and 18.5 g.

**Q.** What about the Weight per day, Day 10 [2] of the same molecule?
**A.** Its Weight per day, Day 10 is 19.6 g and 19.5 g (2×) and 18.3 g and 16.2 g and 17.4 g and 18.6 g.

**Q.** And the Weight per day, Day 12 [2]?
**A.** The Weight per day, Day 12 was 19.9 g and 20 g (2×) and 19.1 g and 16.9 g and 18.2 g and 19.3 g.

**Q.** And the Weight per day, Baseline [3]?
**A.** The Weight per day, Baseline was 20.4 g.

**Q.** And the Weight per day, Day 3 [3]?
**A.** The Weight per day, Day 3 was 20.6 g.

**Q.** What about the Weight per day, Day 4 [3] of the same molecule?
**A.** The Weight per day, Day 4 was 20.3 g.
